System: lateral aspect of the hippocampus
Assay: MRgFUS + microbubbles + QA lesion study in rats, followed by T2-TSE MR imaging
Assay type: in vivo, Male Sprague Dawley rats
Settings: rat, QA 0.06 mmol (1 ml of 10 mg/ml) intraperitoneally once per day for 4 days beginning 2 days prior to insonification, saline-treated animals normal
Procedure: An illustrative example is described below, concerning a study of techniques herein as applied to a particular subject. Male Sprague Dawley rats (e.g., 5-6 weeks of age (120-150 g)), were divided into two groups receiving the following treatments: 1) MRgFUS+microbubbles+saline (n=5), or 2) MRgFUS+microbubbles+QA (n=5). QA was dissolved in 0.1M PBS (10 mg/ml). Either 1 ml of the QA solution (0.06 mmol) or 1 ml of saline was injected intraperitoneally once per day for 4 days beginning 2 days prior to insonification. Phospholipid encapsulated microbubbles (mean size: ˜5 um; concentration: 6×10^8 microbubbles/ml; volume injected: 300 μl/kg) and Gadodiamide contrast (Omniscan, 0.2 ml/kg) were delivered via the tail vein just prior to sonification.
An acoustic energy delivery system was configured in a manner similar to that discussed above as in system 100 and in this illustrative example, the system included an MR-compatible, pre-focused, 8-element annular array comprising 1.5 MHz transducers 111 (e.g., having spherical radius=20 mm±2 mm, active diameter=25 mm [focal ratio=0.8]; an ultrasonic transducer with 80% electric-acoustic efficiency, which was connected to a phased array generator and RF power amplifier. An MR-compatible motorized positioning stage was used to move the transducer in the rostral-caudal and medial-lateral directions. […]

Question: How did the “T2-TSE imaging appearance of brain, 24 hours post-insonification” value (24 hours post-insonification) turn out when `O=C(O)c1cccnc1C(=O)O` [QA, quinolinic acid] was run?
Answer: Its value is “exhibited hyperintensity in the area of insonification”.

Question: What about the “T2-TSE imaging appearance of brain, 7 days post-insonification” value (7 days post-insonification, no evidence of a lesion) of the same molecule?
Answer: The value was “exhibited signs of damage in the region of insonification”.
